Reference: paper PMC9022229, “Induction of Paraptosis by Cyclometalated Iridium Complex-Peptide Hybrids and CGP37157 via a Mitochondrial Ca^2+ Overload Triggered by Membrane Fusion between Mitochondria and the Endoplasmic Reticulum” (Biochemistry, 2022)
Residues, ends and D or L forms follow the SMILES beside them. *: point of attachment. X1 = O=C(COc1ccc(-c2ccccn2)cc1)NCCCCCCCCN*

Key:
Format in all cases: cell-based
Jurkat cells [1] = assay: Mitochondrial Ca2+ by flow cytometry with Rhod-2
Description: (§1) Other characteristic phenomena of paraptosis such as a mitochondrial Ca^2+ overload and loss of mitochondrial membrane potential (ΔΨm) induced by CGP37157 were also examined. Intracellular Ca^2+ concentrations were measured by flow cytometry using red-emitting Ca^2+ probes, Rhod-2 (a mitochondrial Ca^2+ probe) and Rhod-4 (a cytosolic Ca^2+ probe). Jurkat cells were stained with Rhod-2/AM or Rhod-4/AM (at 5 μM) and then treated with CGP37157 (100 μM) or 4 (5 μM) for a given period of incubation, immediately after which the emission intensity of Rhod-2 and Rhod-4 was measured by flow cytometry. […]
(§2) In a 1.5 mL Eppendorf tube, Jurkat cells (2.0 × 10^5 cells) were incubated in the presence of Rhod-2/AM (5 μM, 100 μL) or Rhod-4/AM (5 μM, 100 μL) in 10% FBS/RPMI 1640 medium for 30 min at 37 °C under 5% CO2 and then treated with 4 (5 μM, 0–30 min) or CGP37157 (100 μM, 0–6 h) in 10% FBS/RPMI 1640 medium (100 μL) for 30 min at 37 °C under 5% CO2. Immediately after the treatment, 10% FBS/RPMI 1640 medium (300 μL) was added to the cells and the samples were analyzed on a flow cytometer (FACSCalibur cytometer, Becton). The data were analyzed on FlowJo software (FlowJo, LCC).

Jurkat cells [2] = assay: Cytosolic Ca2+ by flow cytometry with Rhod-4
Description: as §1, §2

Jurkat cells [3] = assay: TEM analysis of cytoplasmic vacuolization
Description: The morphological changes in Jurkat cells induced by CGP37157 (Figure 3B) were similar to those induced by 4 (Figure 1B) and confirmed in detail by TEM (transmission electron microscopy). Jurkat cells were treated with CGP37157 (100 μM) for 12 h, prefixed with glutaraldehyde and postfixed with osmium tetroxide (OsO4), and included in Poly 812 resin. The resulting samples were sliced and then observed by TEM. […] Similar TEM images were reported with respect to paraptosis-inducing natural compounds by some research groups: (i) paraptosis in MDA-MB 435S cells,[17] HeLa cells,[18] and Jurkat cells (Figure 4d and in our previous publications)[56]−[58] induced by celastrol, (ii) paraptosis in HeLa cells induced by 8-p-hydroxybenzoyl tovarol,[23] and (iii) paraptosis in A2780 cells and SKOV-3 cells induced by morusin.[22] Therefore, we believe that Jurkat cells undergo vacuolization in the paraptotic processes induced by 4 and CGP37157, as well as celastrol.
In a 1.5 mL Eppendorf tube, Jurkat cells (3.0 × 10^6 cells) were incubated with 4 (5 μM for 3 h), CGP37157 (100 μM for 12 h), and celastrol (1 μM for 24 h) in 10% FBS/RPMI 1640 medium at 37 °C under 5% CO2. After centrifugation (2000 rpm, 3 min, 4 °C), the cells were washed twice with PBS, prefixed with glutaraldehyde (2.5%) at 4 °C for 40 min, and then washed twice with PBS. Osmium tetroxide (1%) was used for postfixation, and the solution was incubated at 4 °C for 30 min. The cells were washed with PBS, included in an agarose gel, and dehydrated by using 50–100% and anhydrous EtOH. The cells were embedded into Poly 812 resin (Nisshin EM Co. Ltd.) at 60 °C for 3 days. The resin was sliced with a glass knife (150 nm thickness) on an ultramicrotome (EM UC6, Leica), and the samples were stained with EM stainer (Nisshin EM Co. Ltd.) and observed on TEM instrument (H-7650, Hitachi) with electron irradiation at 100 kV.

[4] = tested on: MFN1- and/or MFN2-KD Jurkat cells; assay: MTT assay of MFN1- and/or MFN2-KD Jurkat cells; details: siRNA 10 nM, three independent experiments
Description: The roles of MFNs in the cell death induced by 4 and CGP37157 were examined by using small interfering RNA (siRNA) for MFN1 and MFN2 to knock down (KD) these proteins. […] The cytotoxicity of 4 and CGP37157 against MFN1- and/or MFN2-KD Jurkat cells was evaluated by MTT assays. […] The effect of a negative control siRNA (NCsiRNA) on the expression levels of MFNs and the cell viability of Jurkat cells was negligible, implying that MFNs are […] to the paraptosis induced by 4 and CGP37157. It should be noted that the treatment with siRNA at 5 nM for 72 h was toxic against Jurkat cells in the presence of 4 and CGP37157, although the efficiency of knockdown of these proteins by siRNA could be improved by increasing the incubation time, as shown in Figure S11.
To a solution of transfection reagent (INTERFERin, 5 μL) in OPTI-MEM (0.3 mL) in a 1.5 mL Eppendorf tube was added siRNA (10 μM, 1 or 2 μL) in H2O, and the resulting solution was allowed to stand for 15 min at room temperature. The resulting solution was then added to Jurkat cells (2.0 × 10^5 cells/mL, 1.5 mL) in 10% FBS/RPMI 1640 medium that had been seeded on a 12-well plate and incubated overnight at 37 °C under 5% CO2 (the final concentration of siRNA was 5 or 10 nM), and the resulting solution was incubated for 48 or 72 h at 37 °C under 5% CO2. The cells were collected by centrifugation (2000 rpm, 3 min, 4 °C), and the expression levels of MFNs were evaluated by Western blot analysis as described above. The cytotoxicity of 4 (3 or 5 μM), CGP37157 (50 or 100 μM), and celastrol (1 μM) against MFNs-KD Jurkat cells was evaluated by MTT assays as described above.

| Structure (SMILES) | Emission intensity of Rhod-2 (mitochondrial Ca2+) (Jurkat cells [1]; CGP37157 100 μM, 6 h after treatment) | Emission of Rhod-4 (cytosolic Ca2+) (Jurkat cells [2]; CGP37157 100 μM, 1–6 h) | Morphological change by TEM (Jurkat cells [3]; CGP37157 100 μM, 12 h) | Effect of knockdown of MFNs on cell death induced by the compound ([4]; CGP37157 50 or 100 µM, 12 h) | Emission intensity of Rhod-2 (mitochondrial Ca2+) (Jurkat cells [1]; 4 at 5 μM, 10–30 min after treatment) | Emission of Rhod-4 (cytosolic Ca2+) (Jurkat cells [2]; 4 at 5 μM, 10–30 min) | Morphological change by TEM (Jurkat cells [3]; 4 at 5 μM, 3 h) | Effect of knockdown of MFNs on cell death induced by the compound ([4]; 4 at 3 or 5 µM, 1 h) |
| --- | --- | --- | --- | --- | --- | --- | --- | --- |
| O=C1CSC(c2ccccc2Cl)c2cc(Cl)ccc2N1 (centres unmarked) [CGP37157] | enhanced | small emission enhancement | cytoplasmic vacuolization | weakly inhibited | – | – | – | – |
| NCCCC[C@H](NC(=O)[C@H](CCCCN)NC(=O)[C@@H](N)CCCCN)C(=O)NCC(=O)NCC(=O)NCCCCCCCCNC(=O)COc1ccc(-c2ccccn2)cc1 [compound 4] (H-KKKGG-X1) | – | – | – | – | enhanced | small emission enhancement | cytoplasmic vacuolization | weakly inhibited |
